Test results reported in US11311512B2, “Lymph directing prodrugs” (priority 2014, dated 2022).
Where “and” joins values, the source holds several entries; their conditions need not be identical. Equal values may be shown once. Read-outs that look alike come from different tables or passages of the source.

Tests used:
[1] = for Fold increase (compared with MPA dosed group): lymphatic transport of total MPA derivatives; for Transport of total TST derivatives in lymph (% of dose): mesenteric lymph-duct cannulated female SD rats; for Fold increase (compared with control group dosed with TU): lymphatic transport of total TST derivatives
Protocol: Lipid formulations containing the compound of interest were then administered to the animals, the lymph collected and drug concentrations in the lymph subsequently quantified.
Lipid-based formulations of the compounds of the invention or control compounds were prepared as previously described (Trevaskis, N. L. et al., Pharmaceutical Research, 2005, 22(11), 1863-1870). Briefly, approximately 2 mg of the compound (1 mg in the case of Compound 35 and Compound 1), 40 mg oleic acid and 25 mg Tween 80 were mixed in a glass vial until equilibrated (gentle heat (below 50° C.) may be applied for a short period).
[…] This was to eliminate the potential for the relatively high and variable levels of endogenous testosterone in male rats interfering with the quantification of exogenously dosed testosterone. Rats (240-320 g) were maintained on a standard diet and fasted overnight with free access to water prior to experiments. Anaesthetised rats were placed on a heated pad at 37° C. and cannulas were inserted into the duodenum (for formulation administration and rehydration), mesenteric lymph duct (for lymph collection) and carotid artery (for blood collection) as previously described (Edwards et al. Advanced Drug Delivery Reviews 2001, 50(1), 45-60). Post-surgery, rats were re-hydrated for 0.5 h via intraduodenal infusion of normal saline at 2.8 mL/h. The lipid formulations were infused into the duodenum at 2.8 mL/h for 2 h, after which the infusion was changed to 2.8 mL/h normal saline for the remainder of the experiment. Lymph was continuously collected for 6 to 8 h into pre-weighed Eppendorf tubes containing 10 μL of 1,000 IU/mL heparin. The collection tubes were changed hourly and lymph flow was measured gravimetrically. Aliquots of hourly lymph samples were stored at −80° C. prior to assay.
Drug concentration in lymph is expressed as total drug and includes free drug and drug associated with different glycerides. This is assayed by hydrolysis of lymph (to liberate drug from any re-esterified glycerides) prior to assessment of free drug.
FIG. 1 illustrates the cumulative lymphatic transport of total testosterone related derivatives (% of administered dose) versus time in anaesthetised mesenteric lymph duct cannulated female SD rats following intraduodenal infusion of formulations from 0 to 2 h. Each Formulation contained 2 mg of the exemplified compound or the control, testosterone undecanoate (TU), dispersed in 40 mg oleic acid, 25 mg Tween 80 and 5.6 ml PBS.

[2] = In vitro hydrolysis by rat digestive fluid (bile and pancreatic fluid); type: in vitro ADME; conditions: 37° C., drug-loaded lipid formulation, up to 180 min
Protocol: In vitro hydrolysis of MPA related compounds was performed via incubation with rat digestive fluid. Rat digestive fluid was collected from anesthetized rats via cannulation of the common bile-pancreatic duct immediately prior to the entry of the duct into the duodenum (i.e. below the point of entry of pancreatic secretions). This allowed simultaneous collection of bile and pancreatic fluid. The digestive fluid was collected continuously for 2 h, during which time a blank lipid formulation (prepared as described in the rat lymphatic transport studies but without the addition of drug) was infused into the duodenum at a rate of 2.8 ml/h to mimic conditions following drug administration. Bile and pancreatic fluid was maintained at 37° C. and used within 0.5 h of collection for in vitro prodrug hydrolysis experiments. The hydrolysis experiments were conducted via incubation (at 37° C.) of 0.375 mL of rat digestive fluid with 0.625 ml of the drug-loaded lipid formulations (as described in the rat lymphatic transport studies). The volume ratio of digestive fluid to formulation mimicked the flow rate of bile and pancreatic fluid (˜1.5 mL/h) and the infusion rate of the intraduodenal formulations (2.8 mL/h) during the in vivo lymphatic transport studies. Aliquots of 10 μL (samples taken at 0, 2, 5, 10, 15, 30, 60, 90, 120, 180 min) were added to 990 μL of acetonitrile:water (4:1, v/v) to stop lipolysis, vortexed for 1 min and centrifuged at 4500 g for 5 min to precipitate proteins prior to analysis. The supernatant was analysed by HPLC-MS for residual compound concentrations, and the potential products of compound hydrolysis were analysed.
On incubation with digestive enzymes the monoglycerides forms of the prodrugs are formed very rapidly. The stability in simulated intestinal conditions is therefore better assessed by the stability of the monoglycerides form that is generated by the initial digestion process. The monoglycerides form must remain intact to be absorbed and re-esterified in the enterocyte prior to entry into the lymphatics. […]

[3] = Pharmacokinetic study in rats, testosterone plasma concentrations after oral gavage; conditions: testosterone in plasma, oral gavage; for AUC0-24 h fold increase compared with TU group: SD female rats, dose-normalized; for Tmax / AUC0-24 h / Cmax: conscious carotid artery cannulated SD female rats; for AUC0-24 h / Cmax: normalized to 2 mg/kg equivalent testosterone dose
Protocol: In order to assess the oral bioavailability of the compounds of the invention, pharmacokinetic studies were conducted in rats and dogs. […] The rats were then allowed to regain consciousness and fasted overnight prior to the commencement of experiments with free access to water. […] The oral formulation of Compound 2 contained 3 mg of the compound, 20 mg oleic acid and 12.5 mg Tween 80 dispersed in 1 mL PBS. Blood samples were collected from the carotid artery cannula from 5 min prior to administration up to 24 h post-dosing and centrifuged at 5000 rpm for 5 min to separate plasma. […] Plasma samples were stored at −80° C. prior to assay by HPLC-MS-MS. In this case samples were assayed for free drug (i.e. non-glyceride associated drug) and were not hydrolysed prior to assay (as was the case with the lymph samples).
FIG. 12 illustrates dose-normalized testosterone plasma concentrations following oral gavage of formulations to conscious, carotid artery cannulated female SD rats. Formulations contained 1 mg of TU, or 2 mg of compounds of the invention containing testosterone dispersed in 40 mg oleic acid, 25 mg Tween 80 and 2 ml PBS. Doses are normalized to a 2 mg/kg equivalent dose of testosterone. Data are shown as mean±SEM for all groups (n=4 or 3 for each group). The embedded figure is the plot of the dose-normalized plasma AUC0-24h (nmol×h/L) of testosterone in the form of a bar graph.

[4] = Pharmacokinetic study in greyhound dogs, testosterone plasma concentrations after oral administration; type: in vivo; conditions: fed state
Protocol: For the dog studies, female greyhound dogs were held in a large animal research facility for at least 5 days prior to the commencement of studies. The dogs were allowed to acclimatise for at least 4 days prior to commencing the study. The dogs were fasted for 12 h up to 30 min prior to drug administration. For the fed state studies (n=4 for TU or Compound 13), dogs received 680 g of standard commercial dog food containing 5% fat min prior to drug administration. In the fasted study (n=1 for Compound 13), the dog remained fasted until after 4 h post-dose. Water was available ad libitum throughout the study for all dogs. On the study day, a 20 gauge intravenous catheter was inserted into a cephalic vein to allow blood sampling. The dogs were free to move around (not restrained) after cannulation. For the fed state studies, Andriol Testocaps (the commercial TU product) or Compound 13 was given to the dogs. Andriol Testocaps were supplied by Merck Sharp & Dohme (Australia) Pty Limited and were formulated as soft gelatin capsule containing a 12.0% (w/w) solution of TU in lauroglycol FCC/castor oil [40:60% (w/w)] with the individual capsule composition being 40 mg of TU, lauroglycol FCC, castor oil, gelatin, glycerol, and sunset yellow (E110). Compound 13 was prepared in a long-chain lipid based self-emulsifying drug delivery system (SEDDS) that consisted of 30.5% w/w soybean oil, 30.5% w/w Maisine 35-1, 31.6% w/w Cremophor EL and 7.4% w/w ethanol. Formulations were filled into hard gelatin capsules. Two capsules of Andriol Testocaps containing 80 mg TU or two capsules of Compound 13 containing a total dose of 90 mg Compound 13 dissolved in 2 g of the SEDDS formulation were administrated to the fed greyhound dog by placing the capsules as far posterior to the pharynx as possible, closing the mouth and rubbing the throat to stimulate swallowing. Subsequently 50 mL of water was administered orally via a syringe. Two capsules of Compound 13 formulation were also administrated to the fasted dogs for fasted state studies. After oral administration, blood samples (approx. 3 mL each) were taken via the cephalic vein cannula from 5 min prior to administration up to 10 hours post-dosing. The patency of the catheters was maintained by flushing with a small volume of heparinised saline (1-2 IU/mL) after each blood sample was withdrawn. Blood samples at 24 h were taken by venepuncture. Plasma was separated by centrifugation and aliquots of each plasma sample were transferred into eppendorf tubes and store at −80° C. prior to analysis by LC-MS-MS.

[5] = cited from earlier work
[6] = anaesthetised, mesenteric lymph-duct cannulated male SD rats, intraduodenal infusion 0-2 h, cumulative over 8 h
[7] = male SD rats, intraduodenal infusion
[8] = anaesthetised, intraduodenal infusion 0-2 h, cumulative over 8 h
[9] = female SD rats, intraduodenal infusion

SMILES | Transport of total MPA derivatives in lymph (% of dose) [1, 6] | Fold increase (compared with MPA dosed group) [1, 7] | Transport of total MPA derivatives in lymph (% of dose) ([1]; male SD rats, intraduodenal infusion, co-administration with 0.6 mg of JZL184 and 9 μg of orlistat) | stability of the monoglyceride form during in vitro incubation with freshly collected rat bile and pancreatic fluid [2] | Transport of total TST derivatives in lymph (% of dose) [1, 8] | lymphatic transport, fold higher than straight chain counterpart Compound 10 [1, 9] | Fold increase (compared with control group dosed with TU) [1, 9] | AUC0-24 h fold increase compared with TU group [3] | Tmax [3] | AUC0-24 h [3] | Cmax [3] | AUC0-24 h fold increase compared with TU group ([4]; greyhound dogs, dose-normalized) | Cmax ([4]; oral capsules, conscious greyhound dogs, normalized to 2 mg/kg equivalent testosterone dose, TU as Andriol Testocaps, Compound 13 in SEDDS) | Tmax ([4]; oral capsules, greyhound dogs) | AUC0-24 h ([4]; oral capsules, greyhound dogs, normalized to 2 mg/kg equivalent testosterone dose) | bioavailability of testosterone after oral administration of the undecanoate ester [5]
CCCCCCCCCCCCCCCC(=O)OCC(COC(=O)CCCCCCCCCCCCCCC)OC(=O)CCCCCOC(=O)CC/C(C)=C/Cc1c(O)c2c(c(C)c1OC)COC2=O [Compound 32] | 9.6 % of dose and 9.6 ± 1.4 % of dose | 57.5 fold | 18.8 % of dose | relatively rapidly degraded | – | – | – | – | – | – | – | – | – | – | – | –
CCCCCCCCCCCCCCCC(=O)OCC(COC(=O)CCCCCCCCCCCCCCC)OC(=O)CCCCOC(=O)CC/C(C)=C/Cc1c(O)c2c(c(C)c1OC)COC2=O [Compound 31] | 8.2 % of dose and 8.2 ± 1.3 % of dose | 48.9 fold | – | relatively rapidly degraded | – | – | – | – | – | – | – | – | – | – | – | –
CCCCCCCCCCCCCCCC(=O)OCC(COC(=O)CCCCCCCCCCCCCCC)OC(=O)CC(C)CC(=O)O[C@H]1CC[C@H]2[C@@H]3CCC4=CC(=O)CC[C@]4(C)[C@H]3CC[C@]12C (some centres unmarked) [Compound 18] | – | – | – | significantly stabilised the monoglyceride intermediates | 28.0 ± 3.4 % of dose | approximately 2 fold | 14.9 fold | 0.3 fold | 1.3 ± 0.2 h | 2.0 ± 0.1 nmol·h/L | 1.8 ± 0.3 nM | – | – | – | – | –
CCCCCCCCCCC(=O)O[C@H]1CC[C@H]2[C@@H]3CCC4=CC(=O)CC[C@]4(C)[C@H]3CC[C@]12C [TU, testosterone undecanoate, reference compound] | – | – | – | – | 1.9 ± 0.3 % of dose | – | 1.0 fold | 1.0 fold | 1.5 ± 0.0 h | 6.8 ± 0.4 nmol·h/L | 5.6 ± 0.5 nM | 1 fold | 75.4 ± 12.8 nM | 1.8 ± 0.1 h | 141.1 ± 22.1 nmol·h/L | < 5%
